Measured values: patent publication US20090030066A1, “SMALL MOLECULES FOR THE PROTECTION OF PANCREATIC CELLS” (priority 2007, published 2009)

Tests used:
STZ-treated mice [1] = assay: Blood glucose and body weight in STZ-treated mice, first experiment (not fasted); format: in vivo; details: for Body weight: STZ 210 mg/kg + compound 4.5 mg/kg i.p., unit not given, in g; for protection of islet β-cells: STZ-induced type 1 diabetes model; for effect on STZ-induced rise of blood glucose: STZ-treated animals, 4.5 mg/kg i.p.; for effect on STZ-induced body weight loss: STZ-treated mice, to day 10
Procedure: Male C57BL/6 mice (12 weeks old) were housed in a specific pathogen-free facility with a 12-h light/dark cycle and given free access to food and water. Animals weighing between 28-31 g were selected for the experiments. In each group, at the start of experiment the body weight among individual animals differed by less than 1-g.
One group of mice received no treatment over the entire experiment. A second group received only 4.5 mg per kg of CCompound1 on days −2, −1, 0, +1, +2, +3, +4, +5, +6 and +7. A third/fourth/fifth/sixth group of animals were treated i.p. with 210 mg/kg of STZ on day 0. The fourth, fifth, and sixth group of animals also received 4.5 mg per kg each of CCompound1 (CC1; 4th group) or CCompound3 (CC3; 5th group), or CCompound19 (CC19; 6th group) on days −2, −1, 0, +1, +2, +3, +4, +5, +6 and +7 (with STZ treatment given on day 0). Each group consisted of 7 animals. Body weight was measured regularly.
CC compounds were dissolved in physiological saline while STZ was dissolved in 100 mM sodium citrate (pH 4.5). All compounds were injected intraperitoneally in 0.5 ml volume. Control animals were injected physiological saline (0.5 ml) on the same days when other groups were treated with CC compounds.
Blood samples were taken from the eye (canthus) of the animals on days −1, 0, +1, +2, +3, +7 and +10, and glucose concentrations in whole blood samples were immediately measured with the commercially available fast Glucose C test. The animals were not fasted prior to taking the blood samples. The results are expressed as the mean values from 7 animals ±std. dev. (S.D.).

STZ-treated mice [2] = assay: STZ-treated mice, second experiment: body weight to day 80 and survival; format: in vivo; details: STZ + compound
Excerpt: In a second similar experiment performed with 6 mice in each group, the changes in body weight were followed for up to 80 days (when the last STZ-treated mouse died), and survival was followed for up to 100 days.
For the body weight (on the 80th day) and survival the following values were obtained: Untreated (6 survivors), 37.7 g; STZ-treated (one last survivor died on day 80, others survived for 22, 25, 27, 60, 75 days), 26.0 g; CCompound1-treated (6 survivors), 36.0 g; STZ+CCompound1 treated (6 survivors), 33.4 g; STZ+CCompound3-treated (5 survivors; one mouse died on day 78), 32.5 g. At the start of the experiment (day 0), the average body weight ranged from 28.6 to 29.8 g. Accordingly, by day 80, STZ-treated animals that were also treated with CCompound1 and CCompound3 gained about 50% of the weight gained by the untreated animals.

[3] = tested on: AR42J rat pancreatic tumor cell line; assay: MTT proliferation of AR42J pancreatic tumor cells; format: cell-based; details: 96 h
Excerpt: In the Examples below, an MTT assay was used to determine the relative number of viable cells after treatments. This calorimetric assay is based on the ability of living cells, but not dead cells, to reduce 3-(4,5-dimethyl thiazol-2-yl)-2,5-diphenyltetrazolium bromide. [Carmichael, J, De Graff, W. G., Gazdar, A. F., Minna, J. D. and Mitchell, J. B. (1987) Evaluation of tetrazolium-based semiautomated calorimetric assay: Assessment of chemosensitivity testing. Cancer Res. 47, 936-942], which is hereby incorporated by reference. For this assay, cells were plated in 96-well plates, and the MTT assay was performed as described in the above article both in untreated and treated cell cultures. The MTT assay also was performed at the time when the treatment was started to allow for assessment of the proliferation and survival rates in the control and treated cell cultures. In the MTT assay, higher values mean proportionally higher numbers of viable cells.
The AR42J rat pancreatic tumor cell line, purchased from ATTC (catalog number: CRL-1492), was propagated in modified Ham's medium containing 20% fetal bovine serum. These cells, derived from a transplantable tumor of the exocrine pancreas, contain significant amounts of amylase and other exocrine enzymes and they produce tumors in athymic mice.
For the experiment, cells were split in 96-well plates at 15,000 cells per well. After 24 hours, the medium was changed for fresh medium (0 hour) and various concentrations of CCompound1 and CCompound3 were added and incubations continued for 96 hours. The MTT assay was used to determine the relative number of viable cells. From the data shown in TABLE 13, in the 2-25 μM concentration range CC compounds had only inhibitory effects on the proliferation of pancreatic cancer cells.

[4] = STZ 210 mg/kg i.p. day 0 + compound 4.5 mg/kg i.p. days −2 to +7, day 0
[5] = STZ 210 mg/kg i.p. day 0 + compound 4.5 mg/kg i.p. days −2 to +7, day +1
[6] = STZ 210 mg/kg i.p. day 0 + compound 4.5 mg/kg i.p. days −2 to +7, day +2
[7] = STZ 210 mg/kg i.p. day 0 + compound 4.5 mg/kg i.p. days −2 to +7, day +3
[8] = STZ 210 mg/kg i.p. day 0 + compound 4.5 mg/kg i.p. days −2 to +7, day +7
[9] = STZ 210 mg/kg i.p. day 0 + compound 4.5 mg/kg i.p. days −2 to +7, day +10
[10] = STZ 210 mg/kg i.p. day 0 + compound 4.5 mg/kg i.p. days −2 to +7, day −1

Row | Structure (SMILES) | Body weight (STZ-treated mice [1]; day 0) | Body weight (STZ-treated mice [1]; day +1) | Body weight (STZ-treated mice [1]; day +2) | Body weight (STZ-treated mice [1]; day +3) | Body weight (STZ-treated mice [1]; day +7) | Body weight (STZ-treated mice [1]; day +10) | Blood glucose (STZ-treated mice [1]; [4]) [mM] | Blood glucose (STZ-treated mice [1]; [5]) [mM] | Blood glucose (STZ-treated mice [1]; [6]) [mM] | Blood glucose (STZ-treated mice [1]; [7]) [mM] | Blood glucose (STZ-treated mice [1]; [8]) [mM] | Blood glucose (STZ-treated mice [1]; [9]) [mM] | Blood glucose (STZ-treated mice [1]; [10]) [mM] | protection of islet β-cells (STZ-treated mice [1]) | effect on STZ-induced rise of blood glucose (STZ-treated mice [1]) | effect on STZ-induced body weight loss (STZ-treated mice [1]) | other results
1 | CC[N+](C)(CC)CCOCc1ccc2sc3ccccc3c(=O)c2c1 [CCcompound3] | 28.0 ± 0.9 | 28.2 ± 0.8 | 25.3 ± 0.5 | 25.3 ± 0.6 | 25.2 ± 0.9 | 24.7 ± 1.3 | 4.7 ± 0.7 | 6.5 ± 0.7 | 10.7 ± 1.1 | 13.0 ± 1.1 | 14.2 ± 1.3 | 13.6 ± 1.6 | 4.6 ± 0.5 | clearly protected β-cell function | prevent drastic increase in blood glucose level | reduced the effect of STZ on body weight | weight gained by day 80 relative to the weight gained by the untreated animals (STZ-treated mice [2]): about 50%; body weight on the 80th day (STZ-treated mice [2]; 6 mice per group): 32.5 g; survivors (STZ-treated mice [2]; 80th day, 6 mice per group): 5; A540 (MTT, relative number of viable cells) ([3]; 2 μM): 1.17; A540 (MTT, relative number of viable cells) ([3]; 5 μM): 0.868 ± 0.093; A540 (MTT, relative number of viable cells) ([3]; 10 μM): 0.745 ± 0.052; A540 (MTT, relative number of viable cells) ([3]; 25 μM): 0.675 ± 0.064
2 | C[N+](C)(C)CCC=C1c2ccccc2Sc2ccccc21.[I-] [CCcompound19, N,N,N-trimethyl-3-(9H-thioxanthen-9-ylidene)-propane-1-aminium iodide] | 28.1 ± 0.5 | 28.5 ± 1.2 | 26.4 ± 0.8 | 26.8 ± 1.0 | 26.2 ± 0.9 | 26.4 ± 1.7 | 4.8 ± 0.3 | 5.9 ± 0.6 | 8.7 ± 0.8 | 10.5 ± 0.9 | 12.5 ± 1.1 | 11.9 ± 1.1 | 4.3 ± 0.3 | protected islet β-cells | prevent drastic increase in blood glucose level | reduced the effect of STZ on body weight | –
